Test results: ChEMBL document CHEMBL1800061 (J Med Chem, 2010)

Columns and labels:
[1] = Antiproliferative activity against human NCI60 cells assessed as lethal effect after 72 hrs by sulforhodamine B assay; assay type: functional; settings: NCI60, 72 h, read-out: LC50 (the source's name)
[2] = biological target: Dual specificity mitogen-activated protein kinase kinase 1 (Homo sapiens) (UniProt Q02750); assay: Inhibition of MKK1 assessed as residual enzyme activity at 10 uM
Sequence of Dual specificity mitogen-activated protein kinase kinase 1 (Homo sapiens) (Q02750 whole entry): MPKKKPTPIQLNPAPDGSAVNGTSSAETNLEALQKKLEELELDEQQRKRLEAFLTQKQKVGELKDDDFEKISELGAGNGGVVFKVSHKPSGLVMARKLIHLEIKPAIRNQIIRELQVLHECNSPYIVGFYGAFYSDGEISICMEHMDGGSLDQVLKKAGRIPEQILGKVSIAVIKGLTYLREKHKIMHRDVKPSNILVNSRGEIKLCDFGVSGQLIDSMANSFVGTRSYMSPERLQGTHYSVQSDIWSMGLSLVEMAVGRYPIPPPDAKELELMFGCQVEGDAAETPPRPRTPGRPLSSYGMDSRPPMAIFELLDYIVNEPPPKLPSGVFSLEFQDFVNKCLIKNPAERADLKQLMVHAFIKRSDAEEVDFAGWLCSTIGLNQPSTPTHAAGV

CC(C)c1cnn2c(NCc3ccccc3)cc(N[C@@H](CO)[C@H](O)CO)nc12
CC50 [1]: > 100 µM
Activity [2]: 65%
